Legend:
HiBit-BRM fusion protein = target: T1, HiBit-BRM fusion protein (Homo sapiens, UniProt P51531); test: HiBiT-BRM cell-based degradation assay (Nano-Glo HiBiT Lytic Detection, 24 h); conditions: HeLa cell line expressing HiBiT-BRM; for DC50: read-out: BRM HiBit Degradation IC50
T1 construct: expressed in transfected cells
Method in brief: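 HeLa cells stably expressing HiBiT-BRM were treated for 24 h with compounds (10-point 3-fold dilutions, 30 μM final top dose, in duplicate). HiBiT was detected by lytic LgBiT complementation luminescence. % degradation was normalized to DMSO (high control) and 2 μM of a reference BRM/BRG1 degrader (low control).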

[1] = target: T2, HiBit-BRG1 fusion protein (Homo sapiens, UniProt P51532); test: HiBiT-BRG1 cell-based degradation assay (Nano-Glo HiBiT Lytic Detection, 24 h); conditions: HeLa cell line expressing HiBit-BRG1 and LgBit; for Dmax: read-out: BRG1 HiBit Degradation Maximum (%); for DC50: read-out: BRMG1 HiBit Degradation IC50
T2 construct: expressed in transfected cells
Method in brief: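 Stable HeLa line co-expressing HiBit-BRG1 and LgBit, 5000 cells/well, treated 24 h in a tissue culture incubator. Lysed with Nano-Glo HiBiT lytic reagent, luminescence read. % degradation normalized to DMSO (high control) and 2 μM reference BRM/BRG1 degrader (low control).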

T2 sequence (P51532 whole entry, the tested form may be a part): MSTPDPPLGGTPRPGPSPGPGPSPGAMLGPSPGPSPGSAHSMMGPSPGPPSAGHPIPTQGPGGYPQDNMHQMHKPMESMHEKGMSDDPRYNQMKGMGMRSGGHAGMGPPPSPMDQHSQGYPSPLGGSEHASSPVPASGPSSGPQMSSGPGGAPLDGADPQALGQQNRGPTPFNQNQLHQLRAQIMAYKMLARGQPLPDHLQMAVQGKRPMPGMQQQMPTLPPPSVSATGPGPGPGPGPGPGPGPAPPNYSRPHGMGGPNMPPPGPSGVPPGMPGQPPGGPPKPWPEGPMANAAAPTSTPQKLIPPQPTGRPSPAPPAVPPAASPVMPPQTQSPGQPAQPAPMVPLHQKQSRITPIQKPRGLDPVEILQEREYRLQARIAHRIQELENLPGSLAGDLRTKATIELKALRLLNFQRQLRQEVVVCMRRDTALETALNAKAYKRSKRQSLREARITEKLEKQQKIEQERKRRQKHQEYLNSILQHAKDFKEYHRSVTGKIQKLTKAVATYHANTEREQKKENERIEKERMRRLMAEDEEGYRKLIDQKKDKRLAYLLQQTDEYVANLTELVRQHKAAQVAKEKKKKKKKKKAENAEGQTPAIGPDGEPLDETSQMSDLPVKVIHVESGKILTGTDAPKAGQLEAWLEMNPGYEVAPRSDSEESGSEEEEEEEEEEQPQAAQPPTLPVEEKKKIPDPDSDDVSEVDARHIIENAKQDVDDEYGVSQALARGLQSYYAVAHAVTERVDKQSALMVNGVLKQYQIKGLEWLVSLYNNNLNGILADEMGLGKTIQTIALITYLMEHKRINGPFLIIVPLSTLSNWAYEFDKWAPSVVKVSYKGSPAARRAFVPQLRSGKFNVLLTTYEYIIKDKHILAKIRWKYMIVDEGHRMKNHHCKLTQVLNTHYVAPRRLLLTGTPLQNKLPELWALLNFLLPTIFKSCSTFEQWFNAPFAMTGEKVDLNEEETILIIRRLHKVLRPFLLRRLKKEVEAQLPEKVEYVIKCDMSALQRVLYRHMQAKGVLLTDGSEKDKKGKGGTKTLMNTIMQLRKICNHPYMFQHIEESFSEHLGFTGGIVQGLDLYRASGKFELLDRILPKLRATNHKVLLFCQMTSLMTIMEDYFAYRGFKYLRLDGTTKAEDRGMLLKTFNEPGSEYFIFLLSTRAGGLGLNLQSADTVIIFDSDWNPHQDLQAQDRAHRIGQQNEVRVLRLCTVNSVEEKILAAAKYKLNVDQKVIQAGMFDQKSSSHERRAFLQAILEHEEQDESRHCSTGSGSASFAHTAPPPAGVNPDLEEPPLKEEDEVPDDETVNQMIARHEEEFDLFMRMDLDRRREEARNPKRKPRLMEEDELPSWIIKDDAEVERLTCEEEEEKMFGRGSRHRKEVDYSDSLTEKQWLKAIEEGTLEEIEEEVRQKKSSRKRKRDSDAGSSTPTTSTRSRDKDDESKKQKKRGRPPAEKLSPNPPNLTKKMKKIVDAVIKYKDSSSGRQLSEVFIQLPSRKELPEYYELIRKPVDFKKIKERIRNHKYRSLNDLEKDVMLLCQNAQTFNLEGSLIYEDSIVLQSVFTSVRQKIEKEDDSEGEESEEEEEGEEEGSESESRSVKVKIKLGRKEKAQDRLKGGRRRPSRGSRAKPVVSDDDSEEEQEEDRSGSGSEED
T1 sequence (P51531 whole entry, the tested form may be a part): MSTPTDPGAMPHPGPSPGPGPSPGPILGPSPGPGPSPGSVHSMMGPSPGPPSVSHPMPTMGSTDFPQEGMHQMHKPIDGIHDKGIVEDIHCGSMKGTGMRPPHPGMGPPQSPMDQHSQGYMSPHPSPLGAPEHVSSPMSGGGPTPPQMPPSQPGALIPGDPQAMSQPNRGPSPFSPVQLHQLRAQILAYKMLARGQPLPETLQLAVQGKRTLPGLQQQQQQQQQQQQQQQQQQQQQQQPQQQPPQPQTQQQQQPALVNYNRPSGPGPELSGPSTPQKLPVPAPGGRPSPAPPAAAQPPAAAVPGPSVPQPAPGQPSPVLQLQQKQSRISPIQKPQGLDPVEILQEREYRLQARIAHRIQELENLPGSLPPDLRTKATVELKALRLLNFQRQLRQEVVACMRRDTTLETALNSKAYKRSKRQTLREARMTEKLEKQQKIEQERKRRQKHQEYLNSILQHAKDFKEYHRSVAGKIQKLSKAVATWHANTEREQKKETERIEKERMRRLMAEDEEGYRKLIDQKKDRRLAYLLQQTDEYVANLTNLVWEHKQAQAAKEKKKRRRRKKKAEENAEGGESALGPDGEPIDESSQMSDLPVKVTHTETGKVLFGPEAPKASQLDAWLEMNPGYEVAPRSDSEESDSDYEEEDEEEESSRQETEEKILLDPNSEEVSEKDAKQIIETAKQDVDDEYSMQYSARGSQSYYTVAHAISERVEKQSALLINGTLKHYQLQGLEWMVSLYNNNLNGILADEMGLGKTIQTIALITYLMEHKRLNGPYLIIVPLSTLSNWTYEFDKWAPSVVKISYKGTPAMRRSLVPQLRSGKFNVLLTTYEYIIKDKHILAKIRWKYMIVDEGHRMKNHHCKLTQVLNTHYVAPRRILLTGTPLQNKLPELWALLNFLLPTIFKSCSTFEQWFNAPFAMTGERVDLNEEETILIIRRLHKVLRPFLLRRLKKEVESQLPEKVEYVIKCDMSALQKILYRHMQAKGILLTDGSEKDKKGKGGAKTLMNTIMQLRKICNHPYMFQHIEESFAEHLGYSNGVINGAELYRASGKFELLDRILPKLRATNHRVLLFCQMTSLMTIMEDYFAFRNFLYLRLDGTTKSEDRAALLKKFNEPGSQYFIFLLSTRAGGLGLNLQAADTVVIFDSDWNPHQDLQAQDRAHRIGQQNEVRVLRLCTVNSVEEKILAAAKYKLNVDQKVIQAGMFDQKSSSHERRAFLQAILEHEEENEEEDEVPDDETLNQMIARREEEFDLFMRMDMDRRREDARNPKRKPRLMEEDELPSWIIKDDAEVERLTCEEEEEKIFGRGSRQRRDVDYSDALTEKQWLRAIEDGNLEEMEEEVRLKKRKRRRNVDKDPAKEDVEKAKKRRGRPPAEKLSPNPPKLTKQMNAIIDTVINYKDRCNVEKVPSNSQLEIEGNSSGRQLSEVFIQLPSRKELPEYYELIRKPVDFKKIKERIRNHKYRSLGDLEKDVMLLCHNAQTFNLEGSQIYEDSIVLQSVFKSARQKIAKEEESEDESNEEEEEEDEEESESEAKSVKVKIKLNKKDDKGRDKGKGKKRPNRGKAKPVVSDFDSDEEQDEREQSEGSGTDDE

SMILES | BRM HiBit Degradation Maximum (%) (HiBit-BRM fusion protein) | DC50 (HiBit-BRM fusion protein) [nM] | Dmax [1] [%] | DC50 [1] [nM]
Cc1ncsc1-c1ccc([C@H](C)NC(=O)[C@@H]2C[C@@H](O)CN2C(=O)[C@@H](c2cc(C3CN(Cc4cc5cc(-c6ccccc6O)nnc5[nH]4)C3)no2)C(C)C)cc1 (racemic) [Compound 138, (2S,4R)-4-hydroxy-1-((R)-2-(3-(1-((3-(2-hydroxyphenyl)-7H-pyrrolo[2,3-c]pyridazin-6-yl)methyl)azetidin-3-yl)isoxazol-5-yl)-3-methylbutanoyl)-N-((S)-1-(4-(4-methylthiazol-5-yl)phenyl)ethyl)pyrrolidine-2-carboxamide] | A (“A” indicates maximum degradation ≥ 75%) | > 10 | < 50 | –
Cc1ncsc1-c1ccc([C@H](C)NC(=O)[C@@H]2C[C@@H](O)CN2C(=O)[C@@H](c2cc(OCCN3CC(Oc4c[nH]c5nnc(-c6ccccc6O)cc45)C3)no2)C(C)C)cc1 (racemic) [Compound 139, (2S,4R)-4-hydroxy-1-[(2R)-2-{3-[2-(3-{[3-(2-hydroxyphenyl)-7H-pyrrolo[2,3-c]pyridazin-5-yl]oxy}azetidin-1-yl)ethoxy]-1,2-oxazol-5-yl}-3-methylbutanoyl]-N-[(1S)-1-[4-(4-methyl-1,3-thiazol-5-yl)phenyl]ethyl]pyrrolidine-2-carboxamide] | B (“B” indicates maximum degradation ≥ 50%) | > 100 | < 50 | –
Cc1ncsc1-c1ccc([C@H](C)NC(=O)[C@@H]2C[C@@H](O)CN2C(=O)[C@@H](c2cc(OCCN3CC(c4cc5cc(-c6ccccc6O)nnc5n4C)C3)no2)C(C)C)cc1 (racemic) [Compound 140, (2S,4R)-4-hydroxy-1-((R)-2-(3-(2-(3-(3-(2-hydroxyphenyl)-7-methyl-7H-pyrrolo[2,3-c]pyridazin-6-yl)azetidin-1-yl)ethoxy)isoxazol-5-yl)-3-methylbutanoyl)-N-((S)-1-(4-(4-methylthiazol-5-yl)phenyl)ethyl)pyrrolidine-2-carboxamide] | C (“C” indicates maximum degradation < 50%) | – | < 50 | –
Cc1ncsc1-c1ccc([C@H](C)NC(=O)[C@@H]2C[C@@H](O)CN2C(=O)[C@@H](c2cc(OCCN3C[C@@H]4[C@H](C3)[C@H]4c3cc4cc(-c5cccc(F)c5O)nnc4[nH]3)no2)C(C)C)cc1 (racemic) [Compound 142, (2S,4R)-1-((R)-2-(3-(2-((1R,5S,6R)-6-(3-(3-fluoro-2-hydroxyphenyl)-7H-pyrrolo[2,3-c]pyridazin-6-yl)-3-azabicyclo[3.1.0]hexan-3-yl)ethoxy)isoxazol-5-yl)-3-methylbutanoyl)-4-hydroxy-N-((S)-1-(4-(4-methylthiazol-5-yl)phenyl)ethyl)pyrrolidine-2-carboxamide] | A (“A” indicates maximum degradation ≥ 75%) | > 10 | < 50 | –
Cc1ncsc1-c1ccc([C@H](C)NC(=O)[C@@H]2C[C@@H](O)CN2C(=O)[C@@H](c2cc(OCCN3CC(c4cc5cc(-c6ccccc6O)nnc5n4C(F)F)C3)no2)C(C)C)cc1 (racemic) [Compound 148, (2S,4R)-1-[(2R)-2-[3-(2-{3-[7-(difluoromethyl)-3-(2-hydroxyphenyl)pyrrolo[2,3-c]pyridazin-6-yl]azetidin-1-yl}ethoxy)-1,2-oxazol-5-yl]-3-methylbutanoyl]-4-hydroxy-N-[(1S)-1-[4-(4-methyl-1,3-thiazol-5-yl)phenyl]ethyl]pyrrolidine-2-carboxamide] | C (“C” indicates maximum degradation < 50%) | – | < 50 | –
Cc1ncsc1-c1ccc([C@H](C)NC(=O)[C@@H]2C[C@@H](O)CN2C(=O)[C@H](c2cc(N(C)CCN3CCc4[nH]c5nnc(-c6ccccc6O)cc5c4C3)no2)C(C)C)cc1 (racemic) [Compound 149, (2S,4R)-4-hydroxy-1-((S)-2-(3-((2-(3-(2-hydroxyphenyl)-5,7,8,9-tetrahydro-6H-pyrido[3′,4′:4,5]pyrrolo[2,3-c]pyridazin-6-yl)ethyl)(methyl)amino)isoxazol-5-yl)-3-methylbutanoyl)-N-((S)-1-(4-(4-methylthiazol-5-yl)phenyl)ethyl)pyrrolidine-2-carboxamide] | C (“C” indicates maximum degradation < 50%) | – | < 50 | –
Cc1ncsc1-c1ccc([C@H](C)NC(=O)[C@@H]2C[C@@H](O)CN2C(=O)[C@@H](c2cc(OCCN3CCC34CC(c3c[nH]c5nnc(-c6ccccc6O)cc35)C4)no2)C(C)C)cc1 (mixture of isomers) [Compound 151, (2S,4R)-4-hydroxy-1-((R)-2-(3-(2-(6-(3-(2-hydroxyphenyl)-7H-pyrrolo[2,3-c]pyridazin-5-yl)-1-azaspiro[3.3]heptan-1-yl)ethoxy)isoxazol-5-yl)-3-methylbutanoyl)-N-((S)-1-(4-(4-methylthiazol-5-yl)phenyl)ethyl)pyrrolidine-2-carboxamide] | A (“A” indicates maximum degradation ≥ 75%) | > 100 | < 50 | –
Cc1ncsc1-c1ccc([C@H](C)NC(=O)[C@@H]2C[C@@H](O)CN2C(=O)[C@@H](c2cc(OCCN3CCC34CC(c3cc5cc(-c6ccccc6O)nnc5[nH]3)C4)no2)C(C)C)cc1 (mixture of isomers) [Compound 161, (2S,4R)-4-hydroxy-1-((R)-2-(3-(2-(6-(3-(2-hydroxyphenyl)-7H-pyrrolo[2,3-c]pyridazin-6-yl)-1-azaspiro[3.3]heptan-1-yl)ethoxy)isoxazol-5-yl)-3-methylbutanoyl)-N-((S)-1-(4-(4-methylthiazol-5-yl)phenyl)ethyl)pyrrolidine-2-carboxamide] | A (“A” indicates maximum degradation ≥ 75%) | > 10 | > 75 | > 100
Cc1ncsc1-c1ccc([C@H](C)NC(=O)[C@@H]2C[C@@H](O)CN2C(=O)[C@@H](c2cc(OCCN3CC(c4[nH]c5nnc(-c6ccccc6O)cc5c4C4CC4)C3)no2)C(C)C)cc1 (racemic) [Compound 164, (2S,4R)-1-((R)-2-(3-(2-(3-(5-cyclopropyl-3-(2-hydroxyphenyl)-7H-pyrrolo[2,3-c]pyridazin-6-yl)azetidin-1-yl)ethoxy)isoxazol-5-yl)-3-methylbutanoyl)-4-hydroxy-N-((S)-1-(4-(4-methylthiazol-5-yl)phenyl)ethyl)pyrrolidine-2-carboxamide] | A (“A” indicates maximum degradation ≥ 75%) | > 10 | > 75 | > 100
Cc1ncsc1-c1ccc([C@H](C)NC(=O)[C@@H]2C[C@@H](O)CN2C(=O)[C@@H](c2cc(OCCN3CC4(CNc5nnc(-c6ccccc6O)cc54)C3)no2)C(C)C)cc1 (racemic) [Compound 177, (2S,4R)-4-hydroxy-1-((R)-2-(3-(2-(3′-(2-hydroxyphenyl)-6′,7′-dihydrospiro[azetidine-3,5′-pyrrolo[2,3-c]pyridazin]-1-yl)ethoxy)isoxazol-5-yl)-3-methylbutanoyl)-N-((S)-1-(4-(4-methylthiazol-5-yl)phenyl)ethyl)pyrrolidine-2-carboxamide] | B (“B” indicates maximum degradation ≥ 50%) | > 1000 | < 50 | –
Cc1ncsc1-c1ccc([C@H](C)NC(=O)[C@@H]2C[C@@H](O)CN2C(=O)[C@@H](c2cc(N(C)CCN3CCc4[nH]c5nnc(-c6ccccc6O)cc5c4C3)no2)C(C)C)cc1 (racemic) [Compound 182, (2S,4R)-4-hydroxy-1-((R)-2-(3-((2-(3-(2-hydroxyphenyl)-5,7,8,9-tetrahydro-6H-pyrido[3′,4′:4,5]pyrrolo[2,3-c]pyridazin-6-yl)ethyl)(methyl)amino)isoxazol-5-yl)-3-methylbutanoyl)-N-((S)-1-(4-(4-methylthiazol-5-yl)phenyl)ethyl)pyrrolidine-2-carboxamide] | C (“C” indicates maximum degradation < 50%) | – | < 50 | –
Cc1ncsc1-c1ccc([C@H](C)NC(=O)[C@@H]2C[C@@H](O)CN2C(=O)[C@@H](c2cc(N3CCC(N4CCc5[nH]c6nnc(-c7ccccc7O)cc6c5C4)CC3)no2)C(C)C)cc1 (racemic) [Compound 183, (2S,4R)-4-hydroxy-1-((R)-2-(3-(4-(3-(2-hydroxyphenyl)-5,7,8,9-tetrahydro-6H-pyrido[3′,4′:4,5]pyrrolo[2,3-c]pyridazin-6-yl)piperidin-1-yl)isoxazol-5-yl)-3-methylbutanoyl)-N-((S)-1-(4-(4-methylthiazol-5-yl)phenyl)ethyl)pyrrolidine-2-carboxamide] | A (“A” indicates maximum degradation ≥ 75%) | > 100 | < 50 | –
Cc1ncsc1-c1ccc([C@H](C)NC(=O)[C@@H]2C[C@@H](O)CN2C(=O)[C@@H](c2cc(OCCN3CC(COc4c[nH]c5nnc(-c6ccccc6O)cc45)C3)no2)C(C)C)cc1 (racemic) [Compound 185, (2S,4R)-4-hydroxy-1-[(2R)-2-(3-{2-[3-{{[3-(2-hydroxyphenyl)-7H-pyrrolo[2,3-c]pyridazin-5-yl]oxy}methyl)azetidin-1-yl]ethoxy}-1,2-oxazol-5-yl)-3-methylbutanoyl]-N-[(1S)-1-[4-(4-methyl-1,3-thiazol-5-yl)phenyl]ethyl]pyrrolidine-2-carboxamide] | A (“A” indicates maximum degradation ≥ 75%) | > 100 | > 75 | > 1000
